In PubChem BioAssay AID1259407 (Chemical Carcinogenesis Research Information System (CCRIS), 2018):
The source made the active and inactive calls. The rule behind the calls is not given here.

System: CCRIS mutagenicity, Ames/micronucleus/aberration tests
Assay: CCRIS mutagenicity studies
[1] = Test System: AMES SALMONELLA TYPHIMURIUM, Strain/Indicator: TA97, Metabolic Activation: NONE, Method: PREINCUBATION
[2] = Test System: AMES SALMONELLA TYPHIMURIUM, Strain/Indicator: TA100, Metabolic Activation: NONE, Method: PREINCUBATION
[3] = Test System: AMES SALMONELLA TYPHIMURIUM, Strain/Indicator: TA100, Metabolic Activation: NONE, Method: STANDARD PLATE
[4] = Test System: AMES SALMONELLA TYPHIMURIUM, Strain/Indicator: TA98, Metabolic Activation: HAMSTER, LIVER, S-9, AROCLOR 1254 (10%), Method: PREINCUBATION
[5] = Test System: AMES SALMONELLA TYPHIMURIUM, Strain/Indicator: TA98, Metabolic Activation: NONE, Method: PREINCUBATION
[6] = Test System: AMES SALMONELLA TYPHIMURIUM, Strain/Indicator: TA98, Metabolic Activation: RAT, LIVER, S-9, AROCLOR 1254 (10%), Method: PREINCUBATION
[7] = Test System: AMES SALMONELLA TYPHIMURIUM, Strain/Indicator: TA100, Metabolic Activation: HAMSTER, LIVER, S-9, AROCLOR 1254 (10%), Method: PREINCUBATION
[8] = Test System: AMES SALMONELLA TYPHIMURIUM, Strain/Indicator: TA100, Metabolic Activation: RAT, LIVER, S-9, AROCLOR 1254 (10%), Method: PREINCUBATION
[9] = Test System: AMES SALMONELLA TYPHIMURIUM, Strain/Indicator: TA1535, Metabolic Activation: HAMSTER, LIVER, S-9, AROCLOR 1254 (10%), Method: PREINCUBATION
[10] = Test System: AMES SALMONELLA TYPHIMURIUM, Strain/Indicator: TA1535, Metabolic Activation: NONE, Method: PREINCUBATION
[11] = Test System: AMES SALMONELLA TYPHIMURIUM, Strain/Indicator: TA1535, Metabolic Activation: RAT, LIVER, S-9, AROCLOR 1254 (10%), Method: PREINCUBATION
[12] = Test System: AMES SALMONELLA TYPHIMURIUM, Strain/Indicator: TA1537, Metabolic Activation: NONE, Method: PREINCUBATION
[13] = Test System: AMES SALMONELLA TYPHIMURIUM, Strain/Indicator: TA1537, Metabolic Activation: HAMSTER, LIVER, S-9, AROCLOR 1254 (10%), Method: PREINCUBATION
[14] = Test System: AMES SALMONELLA TYPHIMURIUM, Strain/Indicator: TA1537, Metabolic Activation: RAT, LIVER, S-9, AROCLOR 1254 (10%), Method: PREINCUBATION
[15] = Test System: MOUSE LYMPHOMA, Strain/Indicator: L5178Y (TK+/TK-), Metabolic Activation: NONE, Method: SUSPENSION/PLATE

## Cc1cn([C@H]2C[C@H](O)[C@@H](CO)O2)c(=O)[nH]c1=O
[1]
  mutagenic call: inactive; negative
Test System: AMES SALMONELLA TYPHIMURIUM, Strain/Indicator: TA97, Metabolic Activation: RAT, LIVER, S-9, AROCLOR 1254, Method: PREINCUBATION
  mutagenic call: inactive; negative
[2]
  mutagenic call: inactive; negative
Test System: AMES SALMONELLA TYPHIMURIUM, Strain/Indicator: TA100, Metabolic Activation: RAT, LIVER, S-9, AROCLOR 1254, Method: PREINCUBATION
  mutagenic call: inactive; negative
Test System: CHINESE HAMSTER V-79, Strain/Indicator: V-79 (HPRT)/6-THIOGUANINE, Metabolic Activation: NONE, Method: STANDARD PLATE
  mutagenic call: inactive; negative
Test System: CHINESE HAMSTER V-79, Strain/Indicator: V-79/6-THIOGUANINE, Metabolic Activation: NONE, Method: STANDARD PLATE
  mutagenic call: active; positive
Test System: CHINESE HAMSTER V-79, Strain/Indicator: V-79/8-AZAGUANINE, Metabolic Activation: NONE
  mutagenic call: inactive; negative

## COC(=O)C1CSC2C(Cl)=C(Cl)C(=O)N12 (stereo not given)
[3]
  mutagenic call: active; positive

## Oc1c(I)cc(Cl)c2cccnc12
Test System: AMES SALMONELLA TYPHIMURIUM, Strain/Indicator: TA97, Metabolic Activation: HAMSTER, LIVER, S-9, AROCLOR 1254 (10%), Method: PREINCUBATION
  mutagenic call: inactive; negative
Test System: AMES SALMONELLA TYPHIMURIUM, Strain/Indicator: TA97, Metabolic Activation: HAMSTER, LIVER, S-9, AROCLOR 1254 (30%), Method: PREINCUBATION
  mutagenic call: inactive; negative
[1]
  mutagenic call: inactive; negative
Test System: AMES SALMONELLA TYPHIMURIUM, Strain/Indicator: TA97, Metabolic Activation: RAT, LIVER, S-9, AROCLOR 1254 (10%), Method: PREINCUBATION
  mutagenic call: inactive; negative
Test System: AMES SALMONELLA TYPHIMURIUM, Strain/Indicator: TA97, Metabolic Activation: RAT, LIVER, S-9, AROCLOR 1254 (30%), Method: PREINCUBATION
  mutagenic call: inactive; negative
[4]
  mutagenic call: inactive; negative
Test System: AMES SALMONELLA TYPHIMURIUM, Strain/Indicator: TA98, Metabolic Activation: HAMSTER, LIVER, S-9, AROCLOR 1254 (30%), Method: PREINCUBATION
  mutagenic call: inactive; negative
[5]
  mutagenic call: inactive; negative
[6]
  mutagenic call: inactive; negative
Test System: AMES SALMONELLA TYPHIMURIUM, Strain/Indicator: TA98, Metabolic Activation: RAT, LIVER, S-9, AROCLOR 1254 (30%), Method: PREINCUBATION
  mutagenic call: inactive; negative
[7]
  mutagenic call: inactive; negative
Test System: AMES SALMONELLA TYPHIMURIUM, Strain/Indicator: TA100, Metabolic Activation: HAMSTER, LIVER, S-9, AROCLOR 1254 (30%), Method: PREINCUBATION
  mutagenic call: inactive; negative
[2]
  mutagenic call: inactive; negative
[8]
  mutagenic call: inactive; negative
Test System: AMES SALMONELLA TYPHIMURIUM, Strain/Indicator: TA100, Metabolic Activation: RAT, LIVER, S-9, AROCLOR 1254 (30%), Method: PREINCUBATION
  mutagenic call: inactive; negative
[9]
  mutagenic call: inactive; negative
Test System: AMES SALMONELLA TYPHIMURIUM, Strain/Indicator: TA1535, Metabolic Activation: HAMSTER, LIVER, S-9, AROCLOR 1254 (30%), Method: PREINCUBATION
  mutagenic call: inactive; negative
[10]
  mutagenic call: inactive; negative
[11]
  mutagenic call: inactive; negative
Test System: AMES SALMONELLA TYPHIMURIUM, Strain/Indicator: TA1535, Metabolic Activation: RAT, LIVER, S-9, AROCLOR 1254 (30%), Method: PREINCUBATION
  mutagenic call: inactive; negative
Test System: AMES SALMONELLA TYPHIMURIUM, Strain/Indicator: TA1537, Metabolic Activation: HAMSTER, LIVER, S-9, AROCLOR 1254 (30%), Method: PREINCUBATION
  mutagenic call: inactive; negative
[12]
  mutagenic call: inactive; negative
Test System: AMES SALMONELLA TYPHIMURIUM, Strain/Indicator: TA1537, Metabolic Activation: RAT, LIVER, S-9, AROCLOR 1254 (30%), Method: PREINCUBATION
  mutagenic call: inactive; negative

## CCCNC(=O)NS(=O)(=O)c1ccc(Cl)cc1
End Point: IN VITRO CHROMOSOMAL ABERRATIONS, Test System: CHO CELLS, Metabolic Activation: NONE
  mutagenic call: inactive; negative
End Point: IN VITRO CHROMOSOMAL ABERRATIONS, Test System: CHO CELLS, Metabolic Activation: RAT, LIVER, S-9, AROCLOR 1254
  mutagenic call: inactive; negative
[4]
  mutagenic call: inactive; negative
[5]
  mutagenic call: inactive; negative
[6]
  mutagenic call: inactive; negative
[7]
  mutagenic call: inactive; negative
[2]
  mutagenic call: inactive; negative
[8]
  mutagenic call: inactive; negative
[9]
  mutagenic call: inactive; negative
[10]
  mutagenic call: inactive; negative
[11]
  mutagenic call: inactive; negative
[13]
  mutagenic call: inactive; negative
[12]
  mutagenic call: inactive; negative
[14]
  mutagenic call: inactive; negative
[15]
  mutagenic call: inactive; negative
Test System: MOUSE LYMPHOMA, Strain/Indicator: L5178Y (TK+/TK-), Metabolic Activation: RAT, LIVER, S-9, AROCLOR 1254, Method: SUSPENSION/PLATE
  mutagenic call: inactive; negative

## CC(C)(C)C1CCC2(CC1)CO2 (stereo not given)
[3]
  mutagenic call: inactive; negative

## O=C[C@H](O)[C@@H](O)[C@H](O)[C@H](O)CO
Test System: AMES SALMONELLA TYPHIMURIUM, Strain/Indicator: TA98, Metabolic Activation: RAT LIVER S-9, CHLOROPHENE, Method: STANDARD PLATE (COMPOUND HEATED AT 250 DEGREES CELSIUS FOR 20 MIN)
  mutagenic call: inactive; negative
[15]
  mutagenic call: active; positive

## CN(C)CCCN
[4]
  mutagenic call: inactive; negative
[5]
  mutagenic call: inactive; negative
[6]
  mutagenic call: inactive; negative
Test System: AMES SALMONELLA TYPHIMURIUM, Strain/Indicator: TA98, Metabolic Activation: RAT, LIVER, S-9, PCB, Method: PREINCUBATION
  mutagenic call: inactive; negative
[7]
  mutagenic call: inactive; negative
[2]
  mutagenic call: inactive; negative
[8]
  mutagenic call: inactive; negative
Test System: AMES SALMONELLA TYPHIMURIUM, Strain/Indicator: TA100, Metabolic Activation: RAT, LIVER, S-9, PCB, Method: PREINCUBATION
  mutagenic call: inactive; negative
[9]
  mutagenic call: inactive; negative
[10]
  mutagenic call: inactive; negative
[11]
  mutagenic call: inactive; negative
[13]
  mutagenic call: inactive; negative
[12]
  mutagenic call: inactive; negative
[14]
  mutagenic call: inactive; negative

## Cc1ccc2c(c1)c(=NC(=O)c1ccccc1[N+](=O)[O-])sn2C(=O)c1ccccc1[N+](=O)[O-]
Test System: AMES SALMONELLA TYPHIMURIUM, Strain/Indicator: TA100, Metabolic Activation: S-9, Method: STANDARD PLATE
  mutagenic call: inactive; negative
